This passage reports IC50 results from patent US20240398757A1 (COCRYSTAL PHARMA, INC., priority 2022, published 2024).

This assay concerns the target T1, SARS2 protease (Severe acute respiratory syndrome coronavirus 2, UniProt P0DTD1).
T1 construct: SARS2 protease was added to a final concentration of 30 nM
In words: SARS-CoV-2 protease inhibition assay (SARS2 FRET protease assay). The format is biochemical. Conditions: IC50 (μM), SARS2 protease 30 nM, peptide substrate 1.3 μM, 120 minutes at 37° C., compounds 20 μM to 0.075 nM.
Take `CCC[C@H](NC(=O)O[C@@H](c1ccc(F)cc1)C(F)(F)c1cccc(Cl)c1)C(=O)N[C@H](C=O)C[C@@H]1CCNC1=O` [Compound A148]: the IC50 – broadly, the point on the concentration scale where inhibition reaches its midpoint – is 7 nM. Compound `CCCC[C@H](NC(=O)OC(c1ccccc1)C1(c2cccc(F)c2)CC1)C(=O)N[C@H](C=O)C[C@@H]1CCNC1=O` (stereo partly shown) [Compound A40] showed an IC50 of 3 nM. `CC(C)C[C@H](NC(=O)OC(c1ccccc1)C(F)(F)c1cccc(Cl)c1)C(=O)NC(CN1CCNC1=O)C(=O)C(=O)NC1CC1` (stereo partly shown) [Compound A307] showed an IC50 of 4440 nM. The same measure for `CCCC[C@H](NC(=O)O[C@H](c1cccc(F)c1)C(F)(F)c1cccc(F)c1)C(=O)N[C@H](C=O)C[C@@H]1CCNC1=O` [Compound A201]: 1 nM. Turning to `CC(C)C[C@H](NC(=O)OC(c1ccccc1)C(F)(F)c1cccc(C2CCC2)c1)C(=O)N[C@@H](C[C@@H]1CCNC1=O)C(=O)C(=O)NC1CC1` (stereo partly shown) [Compound A315], half-maximal inhibition (IC50) was put at 51 nM. The same measure for `CCCC[C@H](NC(=O)OC(c1cccc(F)c1)C1(c2cccc(F)c2)CC1)C(=O)N[C@H](C=O)C[C@@H]1CCNC1=O` (stereo partly shown) [Compound A97]: 2.1 nM; for `O=C[C@H](C[C@@H]1CCNC1=O)NC(=O)[C@H](Cc1ccc(Cl)cc1)NC(=O)OC(c1ccccc1)C(F)(F)c1cccc(Cl)c1` (stereo partly drawn) [Compound A262, 2-(3-chlorophenyl)-2,2-difluoro-1-phenylethyl ((S)-3-(4-chlorophenyl)-1-oxo-1-(((S)-1-oxo-3-((S)-2-oxopyrrolidin-3-yl)propan-2-yl)amino)propan-2-yl)carbamate]: 203 nM. Take `CC[C@@H](C)C[C@H](NC(=O)O[C@@H](c1ccccc1)C(F)(F)c1cccc(Cl)c1)C(=O)N[C@@H](C[C@@H]1CCNC1=O)C(=O)C(=O)NC1CC1` [Compound A312]: the IC50 stood at 640 nM. Take `O=C[C@H](C[C@@H]1CCNC1=O)NC(=O)[C@H](Cc1ccccc1)NC(=O)OC(C1CCCCC1)C(F)(F)c1cccc(Cl)c1` (stereo partly shown) [Compound A254]: half-maximal inhibition (IC50) required 2 nM. With `CCCC(=O)OC([C@H](C[C@@H]1CCNC1=O)NC(=O)[C@H](CC1CCCCC1)NC(=O)O[C@H](c1ccccc1)C(F)(F)c1cccc(Cl)c1)S(=O)(=O)O` (stereo partly shown) [Compound A186], 319 nM corresponded to half-maximal inhibition (IC50). The compound `O=C(N[C@@H](CC1CCCCC1)C(=O)N[C@@H](C[C@@H]1CCNC1=O)C(=O)C(=O)NC1CC1)O[C@H](c1ccccc1)C(F)(F)c1cccc(Cl)c1` [Compound A175] yielded an IC50 of 1360 nM. `O=C(N[C@@H](CC1CCCCC1)C(=O)N[C@@H](C[C@@H]1CCNC1=O)C(O)S(=O)(=O)O)O[C@H](c1ccccc1)C(F)(F)c1cccc(Cl)c1` (stereo partly shown) [Compound A135]: it took 2.2 nM to reach half-maximal inhibition (IC50). Compound `CCC[C@H](NC(=O)O[C@@H](c1ccccc1)C(F)(F)c1cccc(Cl)c1)C(=O)N[C@H](C=O)C[C@@H]1CCNC1=O` [Compound A153] yielded an IC50 of 0.6 nM.

For the compound `CCOP(=O)(OCC)C(O)[C@H](C[C@@H]1CCNC1=O)NC(=O)[C@H](CC1CCCCC1)NC(=O)O[C@H](c1ccccc1)C(F)(F)c1cccc(Cl)c1` (stereo partly shown) [Compound A293], the midpoint of inhibition, the IC50, lay at 16100 nM.

`O=C[C@H](C[C@@H]1CCNC1=O)NC(=O)[C@H](CC(F)F)NC(=O)OC(c1ccccc1)C(F)(F)c1cccc(Cl)c1` (stereo partly drawn) [Compound A232, 2-(3-chlorophenyl)-2,2-difluoro-1-phenylethyl ((S)-4,4-difluoro-1-oxo-1-(((S)-1-oxo-3-((S)-2-oxopyrrolidin-3-yl)propan-2-yl)amino)butan-2-yl)carbamate] gave an IC50 of 22 nM. Compound `CC(C)C[C@H](NC(=O)O[C@@H](c1cccc(Cl)c1)C1(c2cccc(Cl)c2)CC1)C(=O)N[C@@H](C[C@@H]1CCNC1=O)C(=O)C(=O)NC1CC1` [Compound A31] showed an IC50 of 7 nM. The same measure for `CCCC[C@H](NC(=O)OC(c1ccccc1)C(F)(F)c1cccc(Cl)c1)C(=O)N[C@@H](C[C@@H]1CCNC1=O)C(=O)C(=O)NCCO` (stereo partly drawn) [Compound A231, 2-(3-chlorophenyl)-2,2-difluoro-1-phenylethyl ((S)-1-(((S)-4-((2-hydroxyethyl)amino)-3,4-dioxo-1-((S)-2-oxopyrrolidin-3-yl)butan-2-yl)amino)-1-oxohexan-2-yl)carbamate]: 89 nM. With `CCC[C@H](NC(=O)O[C@H](c1ccccc1)C(F)(F)c1cccc(F)c1)C(=O)N[C@H](C=O)C[C@@H]1CCNC1=O` [Compound A172], the IC50 is 18.5 nM. The same measure for `CCNC(=O)C(=O)[C@H](C[C@@H]1CCNC1=O)NC(=O)[C@H](CC1CCCC1)NC(=O)OC(c1ccccc1)C(F)(F)c1cccc(Cl)c1` (stereo partly drawn) [Compound A117, 2-(3-chlorophenyl)-2,2-difluoro-1-phenylethyl ((S)-3-cyclopentyl-1-(((S)-4-(ethylamino)-3,4-dioxo-1-((S)-2-oxopyrrolidin-3-yl)butan-2-yl)amino)-1-oxopropan-2-yl)carbamate]: 2.8 nM; for `CC(C)C[C@H](NC(=O)O[C@H](c1cccc(Cl)c1)C1(c2cccc(Cl)c2)CC1)C(=O)N[C@H](C=O)C[C@@H]1CCNC1=O` [Compound A38]: 3.4 nM. `CC(C)C[C@H](NC(=O)OC(c1ccccc1)C(F)(F)c1cccc(C2CCC2)c1)C(=O)N[C@H](C=O)C[C@@H]1CCNC1=O` (stereo partly shown) [Compound A314] gave an IC50 of 1 nM. With `CCNC(=O)C(=O)[C@H](C[C@@H]1CCNC1=O)NC(=O)[C@@H](CC1(C)CCC1)NC(=O)O[C@@H](c1ccccc1)C(F)(F)c1cccc(Cl)c1` [Compound A324], inhibition was half-maximal at 0.3 nM (IC50).

Take `CC(C)C[C@H](NC(=O)OC(C(C)C)C(F)(F)c1cccc(C2CC2)c1)C(=O)N[C@H](C=O)C[C@@H]1CCNC1=O` (stereo partly shown) [Compound A198]: the midpoint of inhibition, the IC50, lay at 6 nM. The compound `CCCC[C@H](NC(=O)O[C@H](c1ccccc1)C(F)(F)c1cccc(F)c1)C(=O)N[C@@H](C[C@@H]1CCNC1=O)C(=O)C(=O)NCC` [Compound A284, (R)-2,2-difluoro-2-(3-fluorophenyl)-1-phenylethyl ((S)-1-(((S)-4-(ethylamino)-3,4-dioxo-1-((S)-2-oxopyrrolidin-3-yl)butan-2-yl)amino)-1-oxohexan-2-yl)carbamate] yielded an IC50 of 8 nM. Regarding `CCCC[C@H](NC(=O)O[C@H](c1ccccc1)C(F)(F)c1cccc(Cl)c1)C(=O)N[C@@H](C[C@@H]1CCNC1=O)C(O)S(=O)(=O)O` (stereo partly shown) [Compound A111], the IC50 was determined as 2.8 nM.

On to `CCCC[C@H](NC(=O)OC(c1ccccc1)C(F)(F)c1cccc(Cl)c1)C(=O)N[C@@H](C[C@@H]1CCNC1=O)C(=O)C(=O)NCCNCC` (stereo partly shown) [Compound A294], for which the IC50 came out at 486 nM. With `CC(C)C[C@H](NC(=O)OC(c1cccc(Cl)c1)C1(c2cccc(Cl)c2)CCN(C(=O)OC(C)(C)C)CC1)C(=O)N[C@H](C=O)C[C@@H]1CCNC1=O` (stereo partly shown) [Compound A86], the IC50 worked out at 370 nM.

For the compound `CCC[C@H](NC(=O)OC(c1ccccc1)C(F)(F)c1cccc(Cl)c1)C(=O)N[C@@H](C[C@@H]1CCNC1=O)C(=O)C(=O)NCC` (stereo partly shown) [Compound A145], the IC50 was 150 nM.

With `CCNC(=O)C(=O)[C@H](C[C@@H]1CCNC1=O)NC(=O)[C@H](Cc1ccc(Cl)c(Cl)c1)NC(=O)OC(c1ccccc1)C(C)(C)c1cccc(Cl)c1` (stereo partly drawn) [Compound A280, 2-(3-chlorophenyl)-2-methyl-1-phenylpropyl ((S)-3-(3,4-dichlorophenyl)-1-(((S)-4-(ethylamino)-3,4-dioxo-1-((S)-2-oxopyrrolidin-3-yl)butan-2-yl)amino)-1-oxopropan-2-yl)carbamate], it took 4500 nM to reach half-maximal inhibition (IC50). The same measure for `CC(C)C[C@H](NC(=O)O[C@@H](c1cccc(Cl)c1)C(C)(C)c1cccc(Cl)c1)C(=O)N[C@H](C=O)C[C@@H]1CCNC1=O` [Compound A139]: 3 nM. For the compound `CC(C)C[C@H](NC(=O)OC(c1ccc(Cl)cc1)C1(c2cccc(Cl)c2)CCN(C(=O)OC(C)(C)C)CC1)C(=O)N[C@@H](C[C@@H]1CCNC1=O)C(=O)C(=O)NC1CC1` (stereo partly shown) [Compound A88], inhibition was half-maximal at 630 nM (IC50). In turn, `CCCC[C@H](NC(=O)OC(c1ccc(F)cc1)C(F)(F)c1cccc(F)c1)C(=O)N[C@H](C=O)C[C@@H]1CCNC1=O` (stereo partly shown) [Compound A55] gave an IC50 of 10 nM.

For `O=C[C@H](C[C@@H]1CCNC1=O)NC(=O)[C@H](CC1CCCCC1)NC(=O)O[C@@H](c1ccccc1)C(F)(F)c1cccc(F)c1` [Compound A126], the IC50 is < 0.01 nM. The same measure for `CCCC[C@H](NC(=O)OC(c1ccc(F)cc1)C1(c2cccc(Cl)c2)CC1)C(=O)N[C@H](C=O)C[C@@H]1CCNC1=O` (stereo partly shown) [Compound A91]: 10 nM; for `CCCC[C@H](NC(=O)O[C@H](c1ccccc1)C(F)(F)c1cccc(Cl)c1)C(=O)N[C@@H](C[C@@H]1CCNC1=O)C(OC(=O)CC)S(=O)(=O)O` (stereo partly shown) [Compound A214]: 1860 nM; for `O=C(N[C@@H](CC1CCCC1)C(=O)N[C@@H](C[C@@H]1CCNC1=O)C(=O)C(=O)NC1CC1)OC(c1ccccc1)C(F)(F)c1cccc(Cl)c1` (stereo partly shown) [Compound A103]: 156 nM. With `CCCC[C@H](NC(=O)O[C@@H](c1ccccc1)C(F)(F)c1cccc(Cl)c1)C(=O)N[C@H](C=O)C[C@@H]1CCCNC1=O` [Compound A150], the IC50 was < 0.1 nM.

In turn, `CCNC(=O)C(=O)[C@H](C[C@@H]1CCNC1=O)NC(=O)[C@H](CC1CCCCC1)NC(=O)O[C@H](c1ccccc1)C(F)(F)c1cccc(Cl)c1` [Compound A134] returned an IC50 of 1180 nM.

In turn, `CCC[C@H](NC(=O)OC(c1ccccc1)C(F)(F)c1cccc(Cl)c1)C(=O)N[C@H](C=O)C[C@@H]1CCNC1=O` (stereo partly shown) [Compound A98] came in with an IC50 of 1.9 nM. On to `CCCC[C@H](NC(=O)O[C@H](c1ccccc1)C(F)(F)c1cccc(Cl)c1)C(=O)N[C@@H](C[C@@H]1CCNC1=O)C(=O)C(N)=O` [Compound A248, (R)-2-(3-chlorophenyl)-2,2-difluoro-1-phenylethyl ((S)-1-(((S)-4-amino-3,4-dioxo-1-((S)-2-oxopyrrolidin-3-yl)butan-2-yl)amino)-1-oxohexan-2-yl)carbamate], for which it took 0.4 nM to reach half-maximal inhibition (IC50).
